Literature values as cited in patent publication US9168226B1, “Injectable particle” (priority 2015, dated 2015).
Values after ≈ are worked out from the molar mass of the structure shown. Where two headings read alike, the source gives them in different places.

aqueous solubility (pH 2.6): 18400 µg/mL (≈ 37.7 mM)
aqueous solubility (pH 6.0): 8 µg/mL (≈ 0.0164 mM)
SMILES: Cc1nc(Nc2ncc(C(=O)Nc3c(C)cccc3Cl)s2)cc(N2CCN(CCO)CC2)n1 [dasatinib, Dasatinib]
